Literature values in patent US20130309199A1, “Novel Treatment of Multiple Sclerosis (MS)” (priority 2010, published 2013).

Key:
[1] = tested on: detrusor instability; conditions: cited from earlier work
[2] = tested on: active multiple sclerosis lesions; conditions: gadolinium-enhanced MR images; cited from earlier work

Row | Compound | side effects occurred ([1]; compared with five on placebo, P less than 0.025) [patients] | tolerability ([1]; in vivo) | frequency ([1]; vs placebo, P less than 0.001) | detrusor-pressure rise during bladder filling ([1]; vs placebo, P less than 0.01) | urge incontinence ([1]; vs placebo, P less than 0.025) | urgency ([1]; vs placebo, P less than 0.025) | suppression of active multiple sclerosis lesions [2]
1 | CC(C(=O)O)c1ccc(-c2ccccc2)c(F)c1 (racemic) [Flurbiprofen] | 13 | well tolerated by most patients | significantly reduced | significantly reduced | significantly reduced | significantly reduced | –
2 | CC(C)Cc1ccc(C(C)C(=O)O)cc1 (stereo not shown) [Ibuprofen] | – | – | – | – | – | – | does not suppress
